Structures are written as SMILES. Where two headings read alike, the source gives them in different places. Where only a bound is given, the exact number is not on record here.

Data set [1] has as its system Differentiated U937 cells. Briefly: MTT assay: cell viability. Type of data set: cell-based, human. To be noted: for d-U937 MTT Assay 4 h: 5% FCS; for d-U937 MTT Assay 24 h: 10% FCS. On the procedure:
Differentiated U937 cells were pre-incubated with each test compound under two protocols: the first for 4 hr in 5% FCS and the second in 10% FCS for 24 h. The supernatant was replaced with 200 μL of new media and 10 μL of MTT stock solution (5 mg/mL) was added to each well. After incubation for 1 hr the media were removed, 200 μL of DMSO was added to each well and the plates were shaken lightly for 1 hr prior to reading the absorbance at 550 nm. The percentage loss of cell viability was calculated for each well relative to vehicle (0.5% DMSO) treatment. Consequently an apparent increase in cell viability for drug treatment relative to vehicle is tabulated as a negative percentage.
(Tetrazolium assays rely on reduction of a dye to a coloured formazan, in cell work by metabolically active cells.)

Data set [2] has as its system TNFα release in d-U937 cells. The data set can be described thus: LPS-induced TNFα release in d-U937 cells. The settings on record: Homo sapiens, dU937, LPS 0.1 μg/mL, 4 hr, relative to 10 μg/mL BIRB796, read-out: d-U937 (LPS) TNFα REC50. The format is cell-based. The protocol:
(§1) U937 cells, a human monocytic cell line, were differentiated to macrophage-type cells by incubation with phorbol myristate acetate (PMA; 100 ng/mL) for 48 to 72 hr, whereupon the cells become adherent. […] Coli: O111:B4, Sigma) for 4 hr. The supernatant was collected for determination of TNFα and IL-8 concentrations by sandwich ELISA (Duo-set, R&D systems). […] The relative 50% effective concentration (REC50) was determined from the resultant concentration-response curve. The inhibition of IL-8 production was calculated at each concentration of test compound by comparison with vehicle control.

The test system of data set [3] is HRV16. The data set can be described thus: Rhinovirus-titre assay. Type of data set: cell-based, human rhinovirus. To be noted: Human rhinovirus sp.; for inhibition at 0.04 µg/mL: cell not marked b, test compounds 0.04 μg/mL per method (footnote b, 0.2 μg/mL). On the procedure: MRC5 cells (human lung fibroblast, ATCC) were infected with 1 MOI (multiplicity of infection of 1.0) of HRV16 and incubated for 1 hr at 33° C. with gentle shaking to stimulate adsorption. The cells were then washed with PBS, fresh media was added and the cells were incubated for a further 96 hr. The supernatant was collected and 10-fold serial dilutions of virus containing supernatant were prepared. All titrations were performed by infecting confluent Hela cell monolayers with serially diluted supernatant (10^−1-10^−5) and assessing the cytopathic effect by visual inspection 4 days after infection. The amount of virus required to infect 50% of Hela cells was calculated in each treatment as TCID50. Test compounds (0.04 μg/mL) were added 2 hr before HRV infection and 1 hr after infection when non-infected HRV was washed out. The anti-HRV activity of each test compound was determined as the difference of the log TCID50 of HRV16 in the presence of the compound with the log TCID50 of HRV16 in the absence of compound. […]

The target of data set [4] is cSrc enzyme (Homo sapiens (Human), UniProt P12931). The data set can be described thus: c-SRC enzyme inhibition assay (FRET, Z'-LYTE). The format is biochemical. To be noted: read-out: Enzyme Profile: IC50 Values cSrc.
Chain of cSrc enzyme (P12931 whole entry, looked up): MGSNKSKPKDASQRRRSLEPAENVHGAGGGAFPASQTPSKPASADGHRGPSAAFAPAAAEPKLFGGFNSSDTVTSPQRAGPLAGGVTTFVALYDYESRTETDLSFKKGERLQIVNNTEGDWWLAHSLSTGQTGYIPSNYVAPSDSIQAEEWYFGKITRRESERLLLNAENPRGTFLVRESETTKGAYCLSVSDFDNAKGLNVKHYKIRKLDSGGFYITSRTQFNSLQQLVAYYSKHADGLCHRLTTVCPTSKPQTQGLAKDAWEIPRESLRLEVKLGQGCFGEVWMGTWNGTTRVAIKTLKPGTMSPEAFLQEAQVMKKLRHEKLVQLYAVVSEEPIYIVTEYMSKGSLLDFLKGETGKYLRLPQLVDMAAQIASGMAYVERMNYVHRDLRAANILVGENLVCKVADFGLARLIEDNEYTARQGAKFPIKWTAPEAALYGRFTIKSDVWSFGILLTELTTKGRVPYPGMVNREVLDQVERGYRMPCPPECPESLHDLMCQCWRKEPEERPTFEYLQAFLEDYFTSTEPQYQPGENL
The subject of data set [5] is IL-8 release in d-U937 cells. The data set can be described thus: LPS-induced IL-8 release in d-U937 cells. To be noted: Homo sapiens, read-out: d-U937 (LPS) IL-8 IC50. The format is cell-based. The protocol: as §1
For data set [6], the system named is ICAM-1 expression in BEAS2B cells. The data set can be described thus: Poly I:C-induced ICAM-1 induction in BEAS2B cells. The format is cell-based. The settings on record: Homo sapiens, BEAS-2B, read-out: BEAS2B (polyIC) ICAM1 IC50. The protocol:
Poly I:C (1 μg/mL) (Invivogene Ltd., San Diego, Calif.) was transfected into BEAS2B cells (human bronchial epithelial cells, ATCC) with Oligofectamine (Invitrogen, Carlsbad, Calif.). Cells were pre-incubated with final concentrations of test compounds for 2 hr and the level of ICAM1 expression on the cell surface was determined by cell-based ELISA. […] The cells were washed with PBS-Tween and incubated with the secondary antibody (HRP-conjugated anti-rabbit IgG, Dako Ltd., Glostrup, Denmark).

For data set [7], the target named is p38 MAPK γ (MAPK12) (Homo sapiens (Human), UniProt P53778). Briefly: Enzyme inhibition assay (FRET, Z-LYTE), p38 MAPK gamma. The format is biochemical. To be noted: read-out: Enzyme Profile: IC50 Values p38γ. On the procedure:
The enzyme inhibitory activity of test compounds was determined by fluorescence resonance energy transfer (FRET) using synthetic peptides labelled with both donor and acceptor fluorophores (Z-LYTE, Invitrogen). Recombinant, phosphorylated p38 MAPK γ (MAPK12:Millipore) was diluted in HEPES buffer, mixed with compound at the desired final concentrations and incubated for 2 hr at RT. The FRET peptide (2 μM) and ATP (100 μM) were next added to the enzyme/compound mixture and incubated for 1 hr. Development reagent (protease) was added for 1 hr prior to detection in a fluorescence microplate reader. The site-specific protease only cleaves non-phosphorylated peptide and eliminates the FRET signal. Phosphorylation levels of each reaction were calculated using the ratio of coumarin emission (donor) over fluorescein emission (acceptor) with high ratios indicating high phosphorylation levels and low ratios indicating low phosphorylation levels.

The subject of data set [8] is TNFα release in THP-1 cells. Briefly: LPS-induced TNFα release in THP-1 cells. Type of data set: cell-based. The settings on record: Homo sapiens, read-out: THP1 (LPS) TNFα IC50. The protocol:
The inhibition of TNFα production was calculated at each concentration by comparison with vehicle control.

The mark [9] stands for this setting: HRV16, cell marked b: performed at 0.2 μg/mL, read-out: HRV titre (inhibitory %): % inhibition observed vs. HRV16 infection control.
The mark [10] stands for this setting: dU937, d-U937 cells, LPS 0.1 μg/mL, 4 hr.
Where [11] appears, read: BEAS2B cells, poly I:C 1 μg/mL, 18 hr.
Setting [12] is: HRV16, read-out: HRV titre (inhibitory %): % inhibition observed vs. HRV16 infection control.

Chain of p38 MAPK γ (MAPK12) (P53778 whole entry): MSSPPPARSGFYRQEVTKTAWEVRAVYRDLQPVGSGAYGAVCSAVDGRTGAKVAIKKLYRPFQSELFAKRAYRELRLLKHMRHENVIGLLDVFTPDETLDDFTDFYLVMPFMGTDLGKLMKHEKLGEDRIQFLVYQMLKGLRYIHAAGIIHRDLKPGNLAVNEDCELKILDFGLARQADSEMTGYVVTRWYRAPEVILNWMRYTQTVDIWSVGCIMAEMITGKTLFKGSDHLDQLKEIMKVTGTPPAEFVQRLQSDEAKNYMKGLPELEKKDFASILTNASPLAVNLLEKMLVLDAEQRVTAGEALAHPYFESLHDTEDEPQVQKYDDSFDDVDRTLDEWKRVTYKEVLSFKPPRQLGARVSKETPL

As for `COCC(=O)Nc1cc(Oc2ccc(NC(=O)Nc3cc(C(C)(C)C)nn3-c3ccc(C)cc3)c3ccccc23)ccn1` [Ref 2, N-(4-(4-(3-(3-tert-butyl-1-p-tolyl-1H-pyrazol-5-yl)ureido)naphthalen-1-yloxy)pyridin-2-yl)-2-methoxy acetamide, reference compound], in data set [1] (1 μg/ml), the “d-U937 MTT Assay 4 h” value is “− (− and + indicate the result is below and above the no significant effect threshold, respectively (<30% inhibition at a concentration of 1 μg/ml))”; the “d-U937 MTT Assay 24 h” value is “− (− and + indicate the result is below and above the no significant effect threshold, respectively (<30% inhibition at a concentration of 1 μg/ml))”. The EC50 in data set [2] came to 0.13 nM. Moreover, the inhibition (as a rule, the drop in the measured response relative to a control, in per cent) at 0.2 µg/mL in data set [3] (setting [9]) turned out to be 100%.
In the case of `Cc1ccc(-n2nc(C(C)(C)C)cc2NC(=O)Nc2ccc(Oc3ccnc4[nH]c(=O)cnc34)c3ccccc23)cc1` [Example 6], the IC50 (in general, the concentration needed to halve the response being measured) came out at 9 nM in data set [4]; 5.2 nM in data set [5] (setting [10]); 11 nM in data set [6] (setting [11]); 72 nM in data set [7]; 0.7 nM in data set [8] (THP-1 cells, LPS 3 μg/mL, 4 hr). Moreover, the “d-U937 MTT Assay 4 h” value in data set [1] (1 μg/ml) was “− (− and + indicate the result is below and above the no significant effect threshold, respectively (<30% inhibition at a concentration of 1 μg/ml))”. For the same molecule, the “d-U937 MTT Assay 24 h” value in data set [1] (1 μg/ml) is “− (− and + indicate the result is below and above the no significant effect threshold, respectively (<30% inhibition at a concentration of 1 μg/ml))”. Also, in data set [2], the EC50 turned out to be 1.1 nM. Further, the inhibition at 0.04 µg/mL in data set [3] (setting [12]) came out at 80%.
Regarding `CC(C)(C)c1cc(NC(=O)Nc2ccc(Oc3ccnc4[nH]c(=O)cnc34)c3ccccc23)n(-c2ccc(Cl)c(Cl)c2)n1` [Example 32, 1-(3-(tert-butyl)-1-(3,4-dichlorophenyl)-1H-pyrazol-5-yl)-3-(4-((3-oxo-3,4-dihydropyrido[2,3-b]pyrazin-8-yl)oxy)naphthalen-1-yl)urea], the 50% inhibitory concentration (IC50) in data set [5] (setting [10]) stood at 7 nM; in data set [6] (setting [11]) it was 10 nM; in data set [8] (THP-1 cells, LPS 3 μg/mL, 4 hr) it was 8.8 nM. Also, the “d-U937 MTT Assay 4 h” value in data set [1] (1 μg/ml) is “− (− and + indicate the result is below and above the no significant effect threshold, respectively (<30% inhibition at a concentration of 1 μg/ml))”. The “d-U937 MTT Assay 24 h” value in data set [1] (1 μg/ml) was “− (− and + indicate the result is below and above the no significant effect threshold, respectively (<30% inhibition at a concentration of 1 μg/ml))”. For the same molecule, the EC50 in data set [2] came out at 5.5 nM. Besides, in data set [3] (setting [12]), the inhibition at 0.04 µg/mL was 80%.
With `COCC(=O)Nc1cc(COc2ccc(NC(=O)Nc3cc(C(C)(C)C)nn3-c3ccc(C)cc3)c3ccccc23)ccn1` [Ref. 1, N-(4-((4-(3-(3-tert-butyl-1-p-tolyl-1H-pyrazol-5-yl)ureido)naphthalen-1-yloxy)methyl)pyridin-2-yl)-2-methoxyacetamide, reference compound], the IC50 in data set [5] (dU937, 4 h) turned out to be 92 nM; in data set [6] (18 h), 618 nM; in data set [8] (THP-1, 4 h) it was 2.3 nM. Also, the “d-U937 MTT Assay 4 h” value in data set [1] (performed at 10 μg/mL) was “− ^d (− and + indicate the result is below and above the no significant effect threshold, respectively (<30% inhibition at a concentration of 1 μg/ml))”. Further, the “d-U937 MTT Assay 24 h” value in data set [1] (performed at 10 μg/mL) was “− ^d (− and + indicate the result is below and above the no significant effect threshold, respectively (<30% inhibition at a concentration of 1 μg/ml))”. Besides, the EC50 in data set [2] worked out at 0.9 nM. The inhibition at 0.2 µg/mL in data set [3] (setting [12]) was 96%.
As for `Cc1ccc(-n2nc(C(C)C)cc2NC(=O)Nc2ccc(Oc3ccnc4[nH]c(=O)cnc34)c3ccccc23)cc1` [Example 30, 1-(3-isopropyl-1-(p-tolyl)-1H-pyrazol-5-yl)-3-(4-((3-oxo-3,4-dihydropyrido[2,3-b]pyrazin-8-yl)oxy)naphthalen-1-yl)urea], the 50% inhibitory concentration (IC50) in data set [5] (setting [10]) turned out to be 4.3 nM; in data set [6] (setting [11]), 27 nM; in data set [8] (THP-1 cells, LPS 3 μg/mL, 4 hr), 34 nM. The “d-U937 MTT Assay 4 h” value in data set [1] (1 μg/ml) was “− (− and + indicate the result is below and above the no significant effect threshold, respectively (<30% inhibition at a concentration of 1 μg/ml))”. Further, the “d-U937 MTT Assay 24 h” value in data set [1] (1 μg/ml) was “− (− and + indicate the result is below and above the no significant effect threshold, respectively (<30% inhibition at a concentration of 1 μg/ml))”. For the same molecule, in data set [2], the EC50 worked out at 1.1 nM. For the same molecule, the inhibition at 0.04 µg/mL in data set [3] (setting [12]) came out at 36%.
With `Cc1ccc(-n2nc(C(C)(C)C)cc2NC(=O)Nc2ccc(Oc3ccnc4[nH]c(=O)cnc34)c3ccccc23)s1` [Example 21], the 50% inhibitory concentration (IC50) in data set [5] (setting [10]) worked out at 3.3 nM; in data set [8] (THP-1 cells, LPS 3 μg/mL, 4 hr), 11 nM. For the same molecule, the “d-U937 MTT Assay 4 h” value in data set [1] (1 μg/ml) was “− (− and + indicate the result is below and above the no significant effect threshold, respectively (<30% inhibition at a concentration of 1 μg/ml))”. In addition, the “d-U937 MTT Assay 24 h” value in data set [1] (1 μg/ml) was “− (− and + indicate the result is below and above the no significant effect threshold, respectively (<30% inhibition at a concentration of 1 μg/ml))”. Besides, the EC50 in data set [2] worked out at 7.1 nM. For the same molecule, in data set [3] (setting [12]), the inhibition at 0.04 µg/mL turned out to be 80%.
On to `Cc1ccc(-n2nc(C(C)(C)C)cc2NC(=O)Nc2ccc(OCCN3CCOCC3)c3ccccc23)cc1` [BIRB 796, 1-(3-tert-butyl-1-p-tolyl-1H-pyrazol-5-yl)-3-(4-(2-morpholinoethoxy)naphthalen-1-yl)urea, reference compound], for which the IC50 in data set [5] (setting [10]) was over 1890 nM; in data set [6] (setting [11]), 3530 nM; in data set [8] (THP-1 cells, LPS 3 μg/mL, 4 hr), 4.1 nM. Moreover, in data set [1] (performed at 10 μg/mL), the “d-U937 MTT Assay 4 h” value is “− ^d (− and + indicate the result is below and above the no significant effect threshold, respectively (<30% inhibition at a concentration of 1 μg/ml))”. In addition, the “d-U937 MTT Assay 24 h” value in data set [1] (performed at 10 μg/mL) is “− ^d (− and + indicate the result is below and above the no significant effect threshold, respectively (<30% inhibition at a concentration of 1 μg/ml))”. In data set [2], the EC50 worked out at 4.8 nM. Further, the inhibition at 0.2 µg/mL in data set [3] (setting [9]) stood at 28%.

(Values after US8933228B2, “Respiratory formulations and compounds for use therein” (Respivert, Ltd., priority 2010, dated 2015).)
